Results: US10294202B2, “Pyrrolidinones as herbicides” (FMC Corporation, priority 2013, dated 2019)

Assays:
corn = experiment: Test A pre-/postemergence herbicide test; assay type: in vivo, Zea mays
How it was run: (§1)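 Visual injury ratings, 0 = no effect, 100 = complete control, taken ~10 days after treatment against untreated greenhouse controls. Preemergence: directed soil spray onto seeded loam/sand pots. Postemergence: spray onto plants at one- to two-leaf stage, 2–10 cm tall.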

giant foxtail = experiment: Test A pre-/postemergence herbicide test; assay type: in vivo, Setaria faberii
How it was run: as §1

pigweed = experiment: Test A pre-/postemergence herbicide test; assay type: in vivo, Amaranthus retroflexus
How it was run: as §1

crabgrass, large = experiment: Test A pre-/postemergence herbicide test; assay type: in vivo, Digitaria sanguinalis
How it was run: as §1

ducksalad = experiment: Test B flooded paddy test; assay type: in vivo, Heteranthera limosa; conditions: 1000 g ai/ha, Flood; scale of 0 to 100 where 0 is no effect and 100 is complete control
How it was run: (§2)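 First, plants reach the 2-leaf stage; next, pots are flooded to 3 cm and compound is delivered into the water; finally, after 13 to 15 greenhouse days at constant depth, injury is graded visually from 0 to 100 against controls.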

velvetleaf = experiment: Test A pre-/postemergence herbicide test; assay type: in vivo, Abutilon theophrasti
How it was run: as §1

wheat = experiment: Test A pre-/postemergence herbicide test; assay type: in vivo, Triticum aestivum
How it was run: as §1

sedge, umbrella = experiment: Test B flooded paddy test; assay type: in vivo, Cyperus difformis; conditions: 1000 g ai/ha, Flood; scale of 0 to 100 where 0 is no effect and 100 is complete control
How it was run: as §2

rice = experiment: Test B flooded paddy test; assay type: in vivo, Oryza sativa; conditions: 1000 g ai/ha, Flood; scale of 0 to 100 where 0 is no effect and 100 is complete control
How it was run: as §2

barnyardgrass [1] = experiment: Test A pre-/postemergence herbicide test; assay type: in vivo, Echinochloa crus-galli
How it was run: as §1

morningglory = experiment: Test A pre-/postemergence herbicide test; assay type: in vivo, Ipomoea spp.
How it was run: as §1

barnyardgrass [2] = experiment: Test B flooded paddy test; assay type: in vivo, Echinochloa crus-galli; conditions: 1000 g ai/ha, Flood; scale of 0 to 100 where 0 is no effect and 100 is complete control
How it was run: as §2

[3] = Postemergence, 1000 g ai/ha, 0 to 100 scale (0 no effect, 100 complete control)
[4] = Preemergence, 1000 g ai/ha, visual rating on 0 to 100 scale (0 no effect, 100 complete control), approx. 10 days
[5] = preemergence, 1000 g ai/ha, 0 to 100 scale
[6] = 125 g ai/ha, visual rating, 0 to 100 scale, 0 no effect, 100 complete control, approximately 10 days, preemergence
[7] = Postemergence, 125 g ai/ha, 0 to 100 scale, 0 no effect, 100 complete control
[8] = Postemergence, 500 g ai/ha, 0 to 100 scale (0 no effect, 100 complete control)
[9] = preemergence, 500 g ai/ha, 0 to 100 scale
[10] = preemergence, 500 g ai/ha, 0 to 100 scale (0 no effect, 100 complete control)

## Cc1c(Cl)cccc1NC(=O)C1C(=O)NCC1c1ccc(F)c(F)c1 (racemic) [Compound 100]
corn; [3]
  Plant response rating, Corn: 40
corn; [4]
  Plant response rating, Corn: 20
Giant foxtail; [3]
  Plant response rating, Foxtail, Giant: 80
Giant foxtail; [4]
  Plant response rating, Foxtail, Giant: 90
pigweed; [3]
  Plant response rating, Pigweed: 0
pigweed; [4]
  Plant response rating, Pigweed: 0
crabgrass, large; [3]
  Plant response rating, Crabgrass, Large: 90
crabgrass, large; [4]
  Plant response rating, Crabgrass, Large: 90
ducksalad
  Plant response rating, Ducksalad: 75
velvetleaf; [3]
  Plant response rating, Velvetleaf: 0
velvetleaf; [4]
  Plant response rating, Velvetleaf: 0
wheat; [3]
  Plant response rating, Wheat: 30
wheat; [4]
  Plant response rating, Wheat: 20
sedge, umbrella
  Plant response rating, Sedge, Umbrella: 0
rice
  Plant response rating, Rice: 0
Barnyardgrass [1]; [3]
  Plant response rating, Barnyardgrass: 80
Barnyardgrass [1]; [4]
  Plant response rating, Barnyardgrass: 90
morningglory; [3]
  Plant response rating, Morningglory: 0
morningglory; [4]
  Plant response rating, Morningglory: 0
Barnyardgrass [2]
  Plant response rating, Barnyardgrass: 25

## O=C1NCC(c2ccc(F)c(F)c2)C1C(=O)Nc1cccc(F)c1Cl (racemic) [Compound 108]
corn; [3]
  Plant response rating, Corn: 0
corn; [5]
  Plant response rating, Corn: 0
Giant foxtail; [3]
  Plant response rating, Foxtail, Giant: 80
Giant foxtail; [5]
  Plant response rating, Foxtail, Giant: 90
pigweed; [3]
  Plant response rating, Pigweed: 0
pigweed; [5]
  Plant response rating, Pigweed: 0
crabgrass, large; [3]
  Plant response rating, Crabgrass, Large: 90
crabgrass, large; [5]
  Plant response rating, Crabgrass, Large: 90
ducksalad
  Plant response rating, Ducksalad: 95
velvetleaf; [3]
  Plant response rating, Velvetleaf: 10
velvetleaf; [5]
  Plant response rating, Velvetleaf: 0
wheat; [3]
  Plant response rating, Wheat: 0
wheat; [5]
  Plant response rating, Wheat: 0
sedge, umbrella
  Plant response rating, Sedge, Umbrella: 0
rice
  Plant response rating, Rice: 0
Barnyardgrass [1]; [3]
  Plant response rating, Barnyardgrass: 90
Barnyardgrass [1]; preemergence, 1000 g ai/ha, 0 to 100 scale (0 no effect, 100 complete control)
  Plant response rating, Barnyardgrass: 90
morningglory; [3]
  Plant response rating, Morningglory: 10
morningglory; [5]
  Plant response rating, Morningglory: 0
Barnyardgrass [2]
  Plant response rating, Barnyardgrass: 50

## O=C1NCC(c2ccc3ccccc3c2)C1C(=O)Nc1ccccc1F (racemic) [Compound 115]
corn; [6]
  Plant response rating, Corn: 0
corn; [7]
  Plant response rating, Corn: 0
corn; [8]
  Plant response rating, Corn: 0
corn; [9]
  Plant response rating, Corn: 0
Giant foxtail; [6]
  Plant response rating, Foxtail, Giant: 20
Giant foxtail; [7]
  Plant response rating, Foxtail, Giant: 0
Giant foxtail; Postemergence, 500 g ai/ha
  Foxtail, Giant plant response rating (0 to 100 scale, 0 is no effect, 100 is complete control): 10
Giant foxtail; [9]
  Plant response rating, Foxtail, Giant: 20
pigweed; [6]
  Plant response rating, Pigweed: 0
pigweed; [7]
  Plant response rating, Pigweed: 0
pigweed; Postemergence, 500 g ai/ha
  Pigweed plant response rating (0 to 100 scale, 0 is no effect, 100 is complete control): 0
pigweed; [9]
  Plant response rating, Pigweed: 0
crabgrass, large; [6]
  Plant response rating, Crabgrass, Large: 70
crabgrass, large; [7]
  Plant response rating, Crabgrass, Large: 0
crabgrass, large; Postemergence, 500 g ai/ha
  Crabgrass, Large plant response rating (0 to 100 scale, 0 is no effect, 100 is complete control): 50
crabgrass, large; [9]
  Plant response rating, Crabgrass, Large: 80
ducksalad
  Plant response rating, Ducksalad: 90
velvetleaf; [6]
  Plant response rating, Velvetleaf: 0
velvetleaf; [7]
  Plant response rating, Velvetleaf: 0
velvetleaf; Postemergence, 500 g ai/ha
  Velvetleaf plant response rating (0 to 100 scale, 0 is no effect, 100 is complete control): 0
velvetleaf; [9]
  Plant response rating, Velvetleaf: 0
wheat; [6]
  Plant response rating, Wheat: 0
wheat; [7]
  Plant response rating, Wheat: 0
wheat; Postemergence, 500 g ai/ha
  Wheat plant response rating (0 to 100 scale, 0 is no effect, 100 is complete control): 0
wheat; [9]
  Plant response rating, Wheat: 0
sedge, umbrella
  Plant response rating, Sedge, Umbrella: 0
rice
  Plant response rating, Rice: 0
Barnyardgrass [1]; [6]
  Plant response rating, Barnyardgrass: 0
Barnyardgrass [1]; [7]
  Plant response rating, Barnyardgrass: 10
Barnyardgrass [1]; [8]
  Plant response rating, Barnyardgrass: 50
Barnyardgrass [1]; [10]
  Plant response rating, Barnyardgrass: 50
morningglory; [6]
  Plant response rating, Morningglory: 0
morningglory; [7]
  Plant response rating, Morningglory: 0
morningglory; Postemergence, 500 g ai/ha
  Morningglory plant response rating (0 to 100 scale, 0 is no effect, 100 is complete control): 0
morningglory; [9]
  Plant response rating, Morningglory: 0
Barnyardgrass [2]
  Plant response rating, Barnyardgrass: 20

## O=C1NCC(c2ccc3ccccc3c2)C1C(=O)Nc1cccc(F)c1F (racemic) [Compound 116]
corn; [6]
  Plant response rating, Corn: 0
corn; [7]
  Plant response rating, Corn: 0
corn; [8]
  Plant response rating, Corn: 20
corn; [9]
  Plant response rating, Corn: 0
Giant foxtail; [6]
  Plant response rating, Foxtail, Giant: 0
Giant foxtail; [7]
  Plant response rating, Foxtail, Giant: 0
Giant foxtail; Postemergence, 500 g ai/ha
  Foxtail, Giant plant response rating (0 to 100 scale, 0 is no effect, 100 is complete control): 20
Giant foxtail; [9]
  Plant response rating, Foxtail, Giant: 30
pigweed; [6]
  Plant response rating, Pigweed: 0
pigweed; [7]
  Plant response rating, Pigweed: 0
pigweed; Postemergence, 500 g ai/ha
  Pigweed plant response rating (0 to 100 scale, 0 is no effect, 100 is complete control): 0
pigweed; [9]
  Plant response rating, Pigweed: 0
crabgrass, large; [6]
  Plant response rating, Crabgrass, Large: 70
crabgrass, large; [7]
  Plant response rating, Crabgrass, Large: 20
crabgrass, large; Postemergence, 500 g ai/ha
  Crabgrass, Large plant response rating (0 to 100 scale, 0 is no effect, 100 is complete control): 30
crabgrass, large; [9]
  Plant response rating, Crabgrass, Large: 80
ducksalad
  Plant response rating, Ducksalad: 80
velvetleaf; [6]
  Plant response rating, Velvetleaf: 0
velvetleaf; [7]
  Plant response rating, Velvetleaf: 0
velvetleaf; Postemergence, 500 g ai/ha
  Velvetleaf plant response rating (0 to 100 scale, 0 is no effect, 100 is complete control): 0
velvetleaf; [9]
  Plant response rating, Velvetleaf: 0
wheat; [6]
  Plant response rating, Wheat: 0
wheat; [7]
  Plant response rating, Wheat: 0
wheat; Postemergence, 500 g ai/ha
  Wheat plant response rating (0 to 100 scale, 0 is no effect, 100 is complete control): 0
wheat; [9]
  Plant response rating, Wheat: 0
sedge, umbrella
  Plant response rating, Sedge, Umbrella: 0
rice
  Plant response rating, Rice: 15
Barnyardgrass [1]; [6]
  Plant response rating, Barnyardgrass: 0
Barnyardgrass [1]; [8]
  Plant response rating, Barnyardgrass: 40
Barnyardgrass [1]; [10]
  Plant response rating, Barnyardgrass: 50
morningglory; [6]
  Plant response rating, Morningglory: 0
morningglory; [7]
  Plant response rating, Morningglory: 0
morningglory; Postemergence, 500 g ai/ha
  Morningglory plant response rating (0 to 100 scale, 0 is no effect, 100 is complete control): 0
morningglory; [9]
  Plant response rating, Morningglory: 0
Barnyardgrass [2]
  Plant response rating, Barnyardgrass: 20
